Experimental data taken from patent publication US20260108584A1, “TREATMENT OF OBESITY-ASSOCIATED INFLAMMATORY CONDITIONS” (THE UNIVERSITY OF BIRMINGHAM, priority 2023, published 2026).

Columns and labels:
pancreatic islets [1] = assay: Prophylactic PEPITEM, 6 weeks HFD: pancreatic islet immunofluorescence imaging; assay type: in vivo, C57BI/6J wild type (WT) mice
Method: (§1) Eight-week-old, male, C57BI/6J wild type (WT) mice were purchased from Charles River and were maintained in a specific pathogen free facility, with free access to food. Environmental conditions were: 21±2° C., 55±10% relative humidity and a 12 hour light-dark cycle. Mice were fed high fat diet (HFD) containing 60% fat (cat no. D12492, Research Diets, INC) for up to 12 weeks. […] Body weight was assessed weekly. Intraperitoneal glucose tolerance tests (IPGTT) were assessed at 3, 6, 8, and 12 weeks in mmol/l using Contour XT glucometer as described in Nasteska, D. et al., JCI Insight 6, doi: 10.1172/jci.insight. […]
(§2) Slides were imaged using Zeiss Axioscan 7 Slide Scanner at 20× magnification using the same acquisition parameters for each slide. Images were initially processed with ZEN Software (Black Edition v2.2) into digital arrays, which were subsequently analysed with ImageJ (1.53K). […] Average number of islets and islet area were determined and expressed as number or area/10,000 μm^2 of the whole pancreatic section area, as previously described by Slavin, B et al., Anat. […]

[2] = test system: J774 murine macrophages cells; assay: In vitro cytokine analysis, LPS-stimulated J774 cells (ELISA); assay type: cell-based; conditions: 10 ng ml^−1 PEPITEM 15 minutes pre-treatment, LPS (10 μg ml^−1) 24 h, vs PBS (FIG. 7)
Method: J774 murine macrophages cells were pre-treated with 10 ng ml^−1 PEPITEM (SVTEQGAELSNEER; Cambridge Research Biochemicals Limited; Cambridge, UK) or phosphate buffered saline (PBS—as control) for 15 minutes and then stimulated with LPS (10 μg ml^−1) for 24 h. Cell supernatants were collected and analysed for the protein expression of IL-6 and TNF-α by ELISA.

leukocyte trafficking [3] = assay: Therapeutic PEPITEM (last 6 of 12 weeks HFD): leukocyte subsets by flow cytometry; assay type: in vivo, C57BI/6J wild type (WT) mice
Method: (§3) Eight-week-old, male, C57BI/6J wild type (WT) mice were purchased from Charles River and were maintained in a specific pathogen free facility, with free access to food. Environmental conditions were: 21±2° C., 55±10% relative humidity and a 12 hour light-dark cycle. Mice were fed high fat diet (HFD) containing 60% fat (cat no. D12492, Research Diets, INC) for up to 12 weeks. Alzet mini pumps 2006 (Charles River) containing 3.5 mg/ml of PEPITEM (SVTEQGAELSNEER-PEG (352)-Amide; Cambridge Research Biochemicals Limited; Cambridge, UK) or phosphate buffered saline (PBS) were implanted at baseline (prophylactic administration) or following 6 weeks of HFD (therapeutic administration), continuously releasing 0.822 mg of content/week. Body weight was assessed weekly. Intraperitoneal glucose tolerance tests (IPGTT) were assessed at 3, 6, 8, and 12 weeks in mmol/l using Contour XT glucometer as described in Nasteska, D. et al., JCI Insight 6, doi: 10.1172/jci.insight. 140288 (2021). Mice were culled […] blood collected into ethylenediaminetetraacetic acid (EDTA) coated eppendorfs^RTM. The peritoneal cavity was lavaged with 5 mM EDTA, spleen and inguinal lymph nodes were isolated and stored in PBS. Gonadal visceral fat pads and abdominal subcutaneous fat was stored in RPMI 1640 media (Gibco) containing 2% BSA and pancreas was FFPE as described in Nasteska, D. et al (supra).
(§4) All tissue samples were weighed prior to processing. Fat tissue was broken into pieces, incubated in an enzyme cocktail consisting of 200 μg/ml Collagenase P (Sigma), 800 μg/ml Collagenase Dispase, 100 μg/ml DNase (both Merck) diluted in Roswell Park Memorial Institute medium (RPMI) containing 2% fetal bovine serum (FBS) at 37° C. for 30 min before being passed through 70 UM filter. Samples were washed by centrifugation in RPMI containing 2% FBS at 400 g (g-force) for 10 minutes and the stromal vascular fraction re-suspended in red blood cell (RBC) lysis buffer for 10 minutes. Samples were then washed by centrifugation at 400 g and re-suspended in RPMI containing 2% FBS. The spleen and lymph node were crushed through a […] filter. Spleen, lymph node and blood samples were all incubated in the RBC lysis buffer as described prior to re-suspension in magnetic-activated cell sorting (MACS) buffer. Peritoneal lavage fluid (PLF) were centrifuged at 400 g for 5 minutes and the cells were resuspended in MACS buffer.
(§5) All samples were blocked with Fc receptor (FcR) blocker (Miltenyi Biotec) prior to staining with the following of antibodies and Zombie Aqua (Biolegend) for 20 minutes at 4° C. prior to washing and fixation with 2% paraformaldehyde (PFA): anti-CD45.2 BV605 (clone 104; Biolegend), anti-CD3 PECy7 (clone 145-2c11), anti-CD4 eFluor450 (clone GK1.5), anti-CD8 PE-TexasRed ^RTM (clone 5H10), anti-CD44 FITC (clone IM7), anti-CD25 AF700 (clone PC61.5), anti-KLRG1 APC-eFluor780 (clone 2F1), anti-CD62L PE (clone MEL-14), anti-CD19-APC (clone 1D3), anti-CD45 APC-CY7 (clone 104), F4/80 FITC (clone BM8), anti-CD11c PE-Cy7 (clone N418), anti-Gp38 PE (clone 8.1.1; all from Thermofisher); anti-CD23 BV421 (clone B3B4), anti-CD93 BV650 (clone AA4.1), anti-CD43 PerCp-Cy5.5 (clone S7), anti-CD21/35 PE (clone 7G6), anti-Siglec F TexasRed^RTM (clone E50-2440), Ly6G APC (clone 1A8; all from BD). Compensation controls were generated using the cells isolated from the spleen. Immediately prior to analysis CountBright beads (Invitrogen) were added and samples were acquired using Fortessa-X20 and data analysed offline using FlowJo^RTM (V-10.2.6) (FIG. 4).

[4] = Prophylactic PEPITEM, 6 weeks HFD: body weight and IPGTT; assay type: in vivo, C57BI/6J wild type (WT) mice
Method: as §3

[5] = Therapeutic PEPITEM (last 6 of 12 weeks HFD): body weight and IPGTT; assay type: in vivo, C57BI/6J wild type (WT) mice
Method: as §3

leukocyte trafficking [6] = assay: Prophylactic PEPITEM, 6 weeks HFD: leukocyte subsets by flow cytometry; assay type: in vivo, C57BI/6J wild type (WT) mice
Method: as §3, §4, §5

pancreatic islets [7] = assay: Therapeutic PEPITEM (last 6 of 12 weeks HFD): pancreatic islet immunofluorescence imaging; assay type: in vivo, C57BI/6J wild type (WT) mice
Method: as §1, §2

In the case of “PEPITEM [SVTEQGAELSNEER, 14-amino-acid immunopeptide derived from 14.3.3.ζδ]”, the “number of pancreatic islets” value (pancreatic islets [1]; vs PBS (FIG. 1(C))) is reported as “no effect”, the “individual area of pancreatic islets” value (pancreatic islets [1]; vs PBS (FIG. 1(D))) is reported as “significantly reduced” and the “amount of IL-6 secreted” value [2] is reported as “significant reduction”. For the same substance, the “amount of TNFalpha secreted” value [2] was “significant reduction”, the “CD3+KLRG1+ T-cells numbers in the peritoneal cavity” value (leukocyte trafficking [3]; therapeutic (FIG. 2(H))) was “no effect” and the “number of CD3+KLRG1+ T-cells in the blood” value (leukocyte trafficking [3]; therapeutic (FIG. 2(I))) was “lower”. The “number of age-associated B-cells in the blood” value (leukocyte trafficking [3]; therapeutic (FIG. 2(J))) was “lower”, the “number of neutrophils in the blood” value (leukocyte trafficking [3]; therapeutic (FIG. 2(K))) was “lower” and the “composition of leukocyte subsets in subcutaneous adipose tissue” value (leukocyte trafficking [3]; therapeutic (data not shown)) was “no effect”. The “B-cell numbers in the spleen” value (leukocyte trafficking [3]; therapeutic, vs PBS (FIG. 3(E))) was “elevated”, the “age-associated B-cell numbers in the spleen” value (leukocyte trafficking [3]; therapeutic, vs PBS (FIG. 3(F))) was “elevated” and the “number of CD45+ leukocytes in the spleen” value (leukocyte trafficking [3]; therapeutic, vs control animals (FIG. 3(A))) was “increased”. For the same substance, the “number of CD3+ T-cells in the spleen” value (leukocyte trafficking [3]; therapeutic, vs control animals (FIG. 3(B))) was “increased”, the “number of CD45+ leukocytes in the inguinal lymph node” value (leukocyte trafficking [3]; therapeutic, vs control animals (FIG. 3(C))) was “increased” and the “number of CD3+ T-cells in the inguinal lymph node” value (leukocyte trafficking [3]; therapeutic, vs control animals (FIG. 3(D))) was “increased”. The “number of CD3+ T-cells in the VAT” value (leukocyte trafficking [3]; therapeutic, vs vehicle control (FIG. 2(D))) was “significant reduction”, the “number of CD4+ T-cells in the VAT” value (leukocyte trafficking [3]; therapeutic, vs vehicle control (FIG. 2(E))) was “significant reduction” and the “number of CD3+KLRG1+ T-cells in the VAT” value (leukocyte trafficking [3]; therapeutic, vs vehicle control (FIG. 2(F))) was “significant reduction”. The “macrophage numbers in the peritoneal cavity” value (leukocyte trafficking [3]; therapeutic, vs vehicle control (FIG. 2(G))) was “significant reduction”, the body weight ([4]; 6 weeks HFD, prophylactic mini pump, vs PBS (FIG. 5(A))) was “unaffected” and the “fasting glucose tolerance or insulin resistance” value ([4]; week 3 or 6 of HFD, prophylactic, vs PBS (FIG. 5(B))) was “no effect”. The glucose tolerance ([5]; 8 or 12 weeks of diet, therapeutic (FIG. 5(D))) was “no effect”, the “weight of the mouse” value ([5]; 12 weeks HFD, therapeutic (FIG. 5(C))) was “no effect” and the “number of T-cell subsets, B-cell subsets, neutrophils, eosinophils or macrophages in the blood, inguinal lymph node or spleen” value (leukocyte trafficking [6]; 6 weeks HFD, prophylactic (FIG. 6)) was “no effect”. The “T-cells (CD3+) in visceral adipose tissue” value (leukocyte trafficking [6]; 6 weeks HFD, prophylactic, vs HFD control (FIG. 1(E))) was “Significantly fewer”, the “CD4+ T cells in visceral adipose tissue” value (leukocyte trafficking [6]; 6 weeks HFD, prophylactic, vs HFD control (FIG. 1(F))) was “Significantly fewer” and the “KLRG1+CD3+ T-cells in visceral adipose tissue” value (leukocyte trafficking [6]; 6 weeks HFD, prophylactic, vs HFD control (FIG. 1(G))) was “Significantly fewer”. For the same substance, the “T-cells (CD3+) in peritoneal cavity” value (leukocyte trafficking [6]; 6 weeks HFD, prophylactic, vs HFD control (FIG. 1(H))) was “Significantly fewer”, the “KLRG1+CD3+ T-cells in peritoneal cavity” value (leukocyte trafficking [6]; 6 weeks HFD, prophylactic, vs HFD control (FIG. 1(I))) was “Significantly fewer” and the “macrophages within the peritoneal cavity” value (leukocyte trafficking [6]; 6 weeks HFD, prophylactic, vs PBS (FIG. 1(J)), back to levels of chow-fed mice) was “significant reduction”. For the same substance, the “absolute numbers of macrophages in the VAT” value (leukocyte trafficking [6]; HFD-fed mice, model (6 or 12 weeks) not specified) was “did not influence”, the “overall number of islets” value (pancreatic islets [7]; vs control mice (FIG. 2(B))) was “without affecting” and the pancreatic islet size (pancreatic islets [7]; vs control mice (FIG. 2(C))) was “significantly reduced”.
